Measured values: article PMC12165043, “Neophytadiene, a Plant Specialized Metabolite, Mediates the Virus‐Vector‐Plant Tripartite Interactions” (Advanced Science, 2025)
Several values for one entry are separate records, joined by “and”; a condition that tells them apart may be missing. Equal entries are not always repeated.

Columns and labels:
BtOBP2 [1] = target: T1, BtOBP2 (Bemisia tabaci, UniProt A0A097BTY7); experiment: Fluorescence competitive binding assay (displacement of 1-NPN from BtOBP2); conditions: mean ± SEM; for IC50: BtOBP2 2 µM, ligand 2 to 20 µM, read-out: IC50, ligand concentration displacing 50% of the fluorescence intensity of the BtOBP2/1-NPN complex; for Ki: Ki = [IC50]/(1 + [1-NPN]/K1-NPN), read-out: Ki, dissociation constant
T1 sequence (A0A097BTY7 23-247): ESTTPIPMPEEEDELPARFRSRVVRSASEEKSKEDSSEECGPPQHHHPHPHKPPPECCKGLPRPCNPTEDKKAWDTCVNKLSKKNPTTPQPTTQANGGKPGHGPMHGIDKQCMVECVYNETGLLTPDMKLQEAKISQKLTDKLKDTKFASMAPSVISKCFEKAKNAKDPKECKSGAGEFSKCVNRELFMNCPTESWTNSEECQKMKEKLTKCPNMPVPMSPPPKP
From the text: (§1) The specific primers for BtOBP2 were designed using Primer 5 software to amplify the coding sequence according to the Phanta Max Super‐Fidelity DNA Polymerase protocol. Target DNA fragments were purified and ligated into the pEASY‐Blunt cloning vector, and positive colonies were identified by PCR and sequenced. The cloned plasmid was ligated into the pET28a vector (Invitrogen, Waltham USA) following digestion with BamHI and SalI. The resulting construct was transformed into Rosetta (DE3) Escherichia coli competent cells. When the OD600 of the recombinant BtOBP2 reached 0.6 to 0.8, induction was initiated by adding isopropyl‐β‐D‐1‐thiogalactopyranoside (IPTG) (1 mM) at 16 °C for 16 h, followed by purification using the Ni‐NTA purification system.^[ [59] ^] The target protein was verified by 10% SDS‐PAGE, and its concentration was determined with a BCA protein assay kit. The recombinant purified protein was stored at −80 °C until use. The target protein was subjected to Coomassie blue staining and western blot validation through 10% SDS‐PAGE using anti His‐Tag antibody, and its concentration was determined using a BCA protein assay kit. The purified recombinant protein was stored at −80 °C.
The binding affinity of BtOBP2 to the fluorescent probe N‐phenyl‐1‐naphthyl‐amine (1‐NPN1) was determined using a FL7000 fluorescence spectrophotometer (Hitachi, Tokyo Japan). Ligands and 1‐NPN were dissolved in HPLC‐grade methanol to a concentration of 1 mM, and then titrated with BtOBP2 (2 µM) to final concentrations ranging from 2 to 20 µM.^[ [60] ^] The optimal excitation and emission wavelengths of the recombinant protein BtOBP2 were determined, and the 1‐NPN/BtOBP2 mixture was excited at 220 nm with emission spectra recorded from 300 to 500 nm. The binding constants (Kd) of BtOBP2 to 1‐NPN were calculated by Scatchard analysis using Prism 5 software. The IC50 represents the concentration at which 50% of the probe was displaced by the ligand. The Ki values were calculated according to the following equation: Ki = [IC50]/(1 + [1‐NPN]/K1‐NPN), where [1‐NPN] is the free concentration of 1‐NPN, and K1‐NPN is the Kd of the 1‐NPN/BtOBP2 complex.^[ [61] ^]

[2] = test system: Bemisia tabaci whiteflies; experiment: Y-tube olfactory choice assay, volatile standard versus solvent control; assay type: in vivo; conditions: for Whitefly preference for plant volatiles versus control (solvent only): number of whiteflies in the volatile arm: Fig 1F raw data, individual replicates (n = 9), 100 whiteflies released, counted for 20 min; for impact of volatile on whitefly preference: Y-tube, volatile standard versus solvent control, n = 9, result in words
Experimental: Y‐tube preference assays were conducted as per Shi et al.^[ [51] ^] with an air flow of 100 mL min^−1. A volatile standard (Sigma Aldrich, USA) and control (solvent) were placed in glass containers at either end of the Y‐tube and 100 whiteflies were released at the Y‐tube base. The number of whiteflies moving more than 5 cm into the Y‐tube arm and remaining there for at least 15 s was counted for 20 min. There were nine replicates per volatile for each of the eight volatile compounds.

TYLCV = test system: TYLCV; parameters: method as in PMID 36086899; conditions: ref [48]; cited from earlier work
Trialeurode vaporariorum = test system: Trialeurode vaporariorum; parameters: method as in PMID 35244166; conditions: ref [47]; cited from earlier work
[3] = test system: Bemisia tabaci whiteflies; experiment: Whole-plant preference test, OELhca4 tomato plants sprayed with neophytadiene or water; assay type: in vivo
Experimental: Tests were conducted as per Shi et al.^[ [49] ^] with slight modifications. ToCV‐infected or control (mock‐inoculated) tomato plants were used for preference tests in screened cages. A second set of preference tests was also conducted using OELhca4 (Lhca4 overexpressed) tomato plants sprayed either with neophytadiene (3 µg g^−1 in water) or water only (control). Each cage contained two plants placed 40 cm apart. Under dim light, about 100 whiteflies that had been starved for 2 h were released above the center of the two plants and the whiteflies on each plant counted after 48 h. Each of the two preference tests (ToCV‐infected versus uninfected plants; OELhca4 plants sprayed with either neophytadiene or water) was replicated nine times.

BtOBP1-8 genes = experiment: Transcriptional response of BtOBP1-8 to neophytadiene (qRT-PCR); assay type: in vivo, Bemisia tabaci
Experimental: RNA was extracted using trizol reagent (Invitrogen, Waltham USA) and dissolved in double‐deionized water; cDNA was synthesized from total RNA (1 µg) using HiScript 1st Strand cDNA Synthesis kit (Vazyme, Nanjing China). Real‐time qPCR was conducted using the MonAmp SYBR Green qPCR Mix (Thermofisher, Waltham USA). Actin and UBI were selected as the housekeeping genes (Table S1, Supporting Information). Each experiment was repeated at least three times and relative gene expression levels calculated for analysis using the 2^−∆∆Ct method.
To investigate the expression profiles of BtOBP1‐8 genes in B. tabaci under neophytadiene treatment, the following experiment was performed. Tomato plants with an identical growth cycle were selected as the treatment group (sprayed with 3 µg g^−1 neophytadiene) and the control group (treated with water only). The treated plants were then placed in a 10 L hermetic container. Once the volatilization reached equilibrium, 500 pairs of adults were introduced into the closed container and fumigated under airtight conditions. Subsequently, the whiteflies were sampled at distinct time points (0, 24, 48, 72, 96 h) respectively for the determination of expression levels.

whiteflies = test system: whiteflies; parameters: method as in PMID 31842757; conditions: ref [18]; cited from earlier work
[4] = test system: Bemisia tabaci whiteflies; experiment: Whitefly preference for neophytadiene after RNA interference (dsGFP, dsBtOBP2, dsOBP3); conditions: for preference (whiteflies choosing Neophytadiene): Neophytadiene versus CK, single replicates; for preference (whiteflies choosing Neophytadiene) / preference (whiteflies choosing Neophytadiene), mean: Fig 7D; for preference (whiteflies choosing Neophytadiene), mean: unlabelled last row = mean of the 9 replicates
BtOBP2 [5] = target: T1, BtOBP2; experiment: Fluorescence binding of the probe 1-NPN to recombinant BtOBP2; conditions: recombinant BtOBP2 2 µM, Scatchard analysis; read-out: binding constant (Kd) of 1-NPN to BtOBP2
From the text: as §1, with “When the OD600 of the recombinant BtOBP2 reached 0.6 to 0.8, induction was initiated by adding isopropyl‐β‐D‐1‐thiogalactopyranoside (IPTG) (1 mM) at 16 °C for 16 h, followed by purification using the Ni‐NTA purification system.^[ [59] ^]” left out, “The recombinant purified protein was stored at −80 °C until use.” left out, “The purified recombinant protein was stored at −80 °C.” left out
The binding affinity of BtOBP2 to the fluorescent probe N‐phenyl‐1‐naphthyl‐amine (1‐NPN1) was determined using a FL7000 fluorescence spectrophotometer (Hitachi, Tokyo Japan). […] The optimal excitation and emission wavelengths of the recombinant protein BtOBP2 were determined, and the 1‐NPN/BtOBP2 mixture was excited at 220 nm with emission spectra recorded from 300 to 500 nm. The binding constants (Kd) of BtOBP2 to 1‐NPN were calculated by Scatchard analysis using Prism 5 software. […]

## CC1=CC=C(C(C)C)CC1 [α‐terpinene]
BtOBP2 [1]
  IC50: 20.4 ± 1.29 µM
  Ki: 15.2 ± 0.96 µM
[2]
  Whitefly preference for plant volatiles versus control (solvent only): number of whiteflies in the volatile arm: 9 and 19 and 28 and 37 and 36 and 43
  impact of volatile on whitefly preference: significantly repelled whiteflies

## CC/C=C\CCO [(Z)‐3‐hexenol]
TYLCV
  effect on tomato defense against infection by whitefly-transmitted TYLCV: improves tomato defense

## phytol
BtOBP2 [1]
  IC50: 26.1 ± 1.48 µM
  Ki: 19.5 ± 1.1 µM
[2]
  Whitefly preference for plant volatiles versus control (solvent only): number of whiteflies in the volatile arm: 58 and 50 and 60 and 24 and 48 and 27 and 44 and 38
  impact of volatile on whitefly preference: did not influence whitefly preference

## C=C1C=CC(C(C)C)CC1 (stereo not drawn) [β‐phellandrene]
BtOBP2 [1]
  IC50: 25.4 ± 3.39 µM
  Ki: 19 ± 2.53 µM
[2]
  Whitefly preference for plant volatiles versus control (solvent only): number of whiteflies in the volatile arm: 34 and 28 and 40 and 32 and 46 and 20 and 36 and 43 and 14
  impact of volatile on whitefly preference: significantly repelled whiteflies

## Cc1ccc(C(C)C)cc1 [ρ‐cymene]
BtOBP2 [1]
  IC50: 16.3 ± 0.49 µM
  Ki: 12.1 ± 0.36 µM
[2]
  Whitefly preference for plant volatiles versus control (solvent only): number of whiteflies in the volatile arm: 10 and 20 and 17 and 26 and 18 and 25 and 27 and 23
  impact of volatile on whitefly preference: significantly repelled whiteflies
Trialeurode vaporariorum
  effect on settling of whitefly on an otherwise-preferred tomato cultivar: repelled

## C=CC(=C)CCCC(C)CCCC(C)CCCC(C)C (stereo not shown) [Neophytadiene]
BtOBP2 [1]
  IC50: 7.95 ± 0.45 µM
[2]
  Whitefly preference for plant volatiles versus control (solvent only): number of whiteflies in the volatile arm: 86 and 89 and 65 and 80 and 52 and 100 and 48
  impact of volatile on whitefly preference: attracted B. tabaci
[3]; OELhca4+Neophytadiene versus OELhca4, Fig 5J, single replicates
  preference (whiteflies on plant): 80 and 70 and 78 and 72 and 60 and 66 and 76 and 73
[3]; neophytadiene 3 µg g^−1 in water, whiteflies counted after 48 h, n = 9
  Whitefly preference for neophytadiene-sprayed versus water-sprayed OELhca4 plants: attracted more whiteflies
BtOBP1-8 genes; 24h, Fig 7A
  OBP1 relative expression: 1.5096 and 1.0333 and 1.7792
  OBP2 relative expression: 2.314 and 1.938 and 1.255
  OBP3 relative expression: 2.295 and 2.274 and 2.135
  OBP4 relative expression: 1.915 and 1.067 and 1.378
  OBP5 relative expression: 0.9141 and 1.109 and 1.357
  OBP7 relative expression: 0.4368 and 0.5508 and 0.2972
BtOBP1-8 genes; 48h, Fig 7A
  OBP1 relative expression: 0.9445 and 0.6245 and 1.003
  OBP2 relative expression: 3.877 and 2.855 and 4.158
  OBP3 relative expression: 2.98 and 1.807 and 1.705
  OBP4 relative expression: 1.105 and 0.8073 and 0.7508
  OBP7 relative expression: 0.7647 and 0.5685 and 0.6675
BtOBP1-8 genes; 72h, Fig 7A
  OBP4 relative expression: 0.7926 and 1.238 and 0.8444
  OBP6 relative expression: 0.6207 and 0.9359 and 1.164
BtOBP1-8 genes; 96h, Fig 7A
  OBP3 relative expression: 2.791 and 2.514 and 4.498
  OBP4 relative expression: 1.221 and 0.8392 and 1.362
  OBP6 relative expression: 0.4452 and 0.8016 and 0.4814
  OBP7 relative expression: 0.7369 and 0.9206 and 0.9224
  OBP8 relative expression: 0.9529 and 0.9384 and 0.8486
BtOBP1-8 genes; continuous release for 96 h, measured every 24 h
  relative gene expression of BtOBP1-8 following neophytadiene exposure: Only two genes, BtOBP2 and BtOBP3, increased their expression over time
whiteflies
  attraction of whiteflies: highly attractive to whiteflies
[4]; after RNA interference of BtOBP2, n = 9
  preference for neophytadiene of BtOBP2-silenced (dsOBP2) whiteflies: no preference
[4]; after RNA interference of BtOBP3, n = 9
  preference for neophytadiene of BtOBP3-silenced (dsOBP3) whiteflies: still exhibited preference
[4]; dsGFP-treated whiteflies
  preference (whiteflies choosing Neophytadiene): 95 and 86 and 80 and 93 and 85 and 88 and 79 and 90
  preference (whiteflies choosing Neophytadiene), mean: 87.6667
[4]; dsOBP2-treated whiteflies
  preference (whiteflies choosing Neophytadiene): 36 and 41 and 48 and 46 and 42 and 58 and 59 and 45
  preference (whiteflies choosing Neophytadiene), mean: 46.3333

## C=C1CCC2CC1C2(C)C (stereo not drawn) [β‐pinene]
BtOBP2 [1]
  IC50: 13.7 ± 0.51 µM
  Ki: 10.2 ± 0.38 µM
[2]
  Whitefly preference for plant volatiles versus control (solvent only): number of whiteflies in the volatile arm: 12 and 26 and 37 and 29 and 28 and 24 and 10 and 31 and 15
  impact of volatile on whitefly preference: significantly repelled whiteflies

## CC12CCC(CC1)C(C)(C)O2 [1, 8‐cineole]
Trialeurode vaporariorum
  effect on settling of whitefly on an otherwise-preferred tomato cultivar: repelled

## C=C1CC/C=C(\C)CC[C@@H]2[C@@H]1CC2(C)C [β‐caryophyllene]
BtOBP2 [1]
  IC50: 14.2 ± 0.72 µM
  Ki: 10.6 ± 0.54 µM
[2]
  Whitefly preference for plant volatiles versus control (solvent only): number of whiteflies in the volatile arm: 41 and 20 and 16 and 6 and 19 and 27 and 31 and 10 and 39
  impact of volatile on whitefly preference: significantly repelled whiteflies

## c1ccc(Nc2cccc3ccccc23)cc1 [1‐NPN, N‐Phenyl‐1‐naphthylamine]
BtOBP2 [5]
  Kd: 2.94 ± 0.08 µM

## CC1=CCC2CC1C2(C)C (stereo not drawn) [α‐pinene]
BtOBP2 [1]
  IC50: 14.6 ± 0.57 µM
  Ki: 10.9 ± 0.43 µM
[2]
  Whitefly preference for plant volatiles versus control (solvent only): number of whiteflies in the volatile arm: 23 and 24 and 30 and 26 and 17 and 40 and 21 and 6 and 43
  impact of volatile on whitefly preference: significantly repelled whiteflies

## C=C(C)[C@H]1CC=C(C)CC1 [limonene]
Trialeurode vaporariorum
  effect on settling of whitefly on an otherwise-preferred tomato cultivar: repelled
